The source of these data is ChEMBL document CHEMBL5465560, “Selectivity Literature for EUbOPEN Chemogenomic Library” (2024).

Test [1] deals with Phosphatidylinositol 3-kinase catalytic subunit type 3 (Homo sapiens, UniProt Q8NEB9). Put plainly: Selectivity interaction (Adapta Assay) EUB0001632a PIK3C3. As to conditions: at 10 µM.
Test [2] concerns the target Serine/threonine-protein kinase PLK3 (Homo sapiens, UniProt Q9H4B4). Briefly: Selectivity interaction (Ambit KINOMEscan and KiNATiv profiling in Jurkat cells) EUB0000090b PLK3. It is filed as cell-based. The note with it: at 1 µM.
Test [3] addresses Tyrosine-protein kinase Yes (Homo sapiens) (UniProt P07947). Put plainly: Selectivity interaction (KinomeScan (DiscoverX)) EUB0000666a YES1. As to conditions: at 10 µM.
Test [4] has as its target T1, N-lysine methyltransferase KMT5A (Homo sapiens) (UniProt Q9NQR1).
T1 sequence (whole entry): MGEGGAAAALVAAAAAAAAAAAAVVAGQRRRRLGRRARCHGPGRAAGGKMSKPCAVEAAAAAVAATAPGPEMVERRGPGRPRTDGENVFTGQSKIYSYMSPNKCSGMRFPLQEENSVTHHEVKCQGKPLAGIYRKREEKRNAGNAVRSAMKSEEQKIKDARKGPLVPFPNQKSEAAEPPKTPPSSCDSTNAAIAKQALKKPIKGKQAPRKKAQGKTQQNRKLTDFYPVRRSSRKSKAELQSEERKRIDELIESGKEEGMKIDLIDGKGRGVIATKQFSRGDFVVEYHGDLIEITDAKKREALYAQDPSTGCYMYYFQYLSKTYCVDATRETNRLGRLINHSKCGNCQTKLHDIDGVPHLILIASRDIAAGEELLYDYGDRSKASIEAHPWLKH
The note with it: at 10 µM.

The target in test [5] is Cyclin-dependent kinase 8 (Homo sapiens, UniProt P49336). Put plainly: Selectivity interaction (KinomeScan (DiscoverX)) EUB0000229b CDK8. The note with it: at 10 µM.
Sequence of Cyclin-dependent kinase 8 (P49336 whole entry): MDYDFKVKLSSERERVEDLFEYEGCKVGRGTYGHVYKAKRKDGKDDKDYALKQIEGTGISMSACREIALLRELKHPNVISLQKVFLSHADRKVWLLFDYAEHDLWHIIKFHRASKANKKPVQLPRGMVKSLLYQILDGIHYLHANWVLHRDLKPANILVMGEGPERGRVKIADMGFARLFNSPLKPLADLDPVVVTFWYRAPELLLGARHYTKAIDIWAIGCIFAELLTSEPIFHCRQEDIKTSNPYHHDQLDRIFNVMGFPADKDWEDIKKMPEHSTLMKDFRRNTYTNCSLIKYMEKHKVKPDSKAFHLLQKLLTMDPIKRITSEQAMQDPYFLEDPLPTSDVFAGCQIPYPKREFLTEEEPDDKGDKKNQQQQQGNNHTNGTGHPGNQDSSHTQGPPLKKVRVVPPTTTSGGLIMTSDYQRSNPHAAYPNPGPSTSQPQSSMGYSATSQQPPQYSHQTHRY
Test [6] addresses Activin receptor type-2B (Homo sapiens) (UniProt Q13705). Briefly: Selectivity interaction (KinomeScan (DiscoverX)) EUB0001079a ACVR2B. The note with it: at 1 µM.
Test [7] deals with T2, Muscarinic acetylcholine receptor M1 (Homo sapiens) (UniProt P11229).
T2 sequence (whole entry): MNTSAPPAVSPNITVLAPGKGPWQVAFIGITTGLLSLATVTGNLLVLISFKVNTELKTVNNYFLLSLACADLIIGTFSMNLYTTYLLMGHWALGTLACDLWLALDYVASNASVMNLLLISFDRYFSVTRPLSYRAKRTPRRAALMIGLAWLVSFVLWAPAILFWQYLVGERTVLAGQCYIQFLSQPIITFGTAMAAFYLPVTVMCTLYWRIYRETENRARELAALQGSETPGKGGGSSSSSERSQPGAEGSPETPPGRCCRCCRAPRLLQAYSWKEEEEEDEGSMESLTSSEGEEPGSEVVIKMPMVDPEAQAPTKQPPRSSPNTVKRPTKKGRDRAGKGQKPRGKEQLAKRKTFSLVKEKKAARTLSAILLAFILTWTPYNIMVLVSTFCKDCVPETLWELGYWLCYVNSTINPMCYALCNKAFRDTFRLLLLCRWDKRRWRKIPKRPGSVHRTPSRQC
Briefly: Selectivity interaction (Panel of kinases, GPCRs, ion channels and transporters (enzymatic assay)) EUB0000266bCl CHRM1.

Test [8] deals with 5-hydroxytryptamine receptor 2A (Homo sapiens, UniProt P28223). Briefly: Selectivity interaction (Panel of kinases, GPCRs, ion channels and transporters (enzymatic assay)) EUB0000266bCl HTR2A.
Sequence of 5-hydroxytryptamine receptor 2A (P28223 whole entry): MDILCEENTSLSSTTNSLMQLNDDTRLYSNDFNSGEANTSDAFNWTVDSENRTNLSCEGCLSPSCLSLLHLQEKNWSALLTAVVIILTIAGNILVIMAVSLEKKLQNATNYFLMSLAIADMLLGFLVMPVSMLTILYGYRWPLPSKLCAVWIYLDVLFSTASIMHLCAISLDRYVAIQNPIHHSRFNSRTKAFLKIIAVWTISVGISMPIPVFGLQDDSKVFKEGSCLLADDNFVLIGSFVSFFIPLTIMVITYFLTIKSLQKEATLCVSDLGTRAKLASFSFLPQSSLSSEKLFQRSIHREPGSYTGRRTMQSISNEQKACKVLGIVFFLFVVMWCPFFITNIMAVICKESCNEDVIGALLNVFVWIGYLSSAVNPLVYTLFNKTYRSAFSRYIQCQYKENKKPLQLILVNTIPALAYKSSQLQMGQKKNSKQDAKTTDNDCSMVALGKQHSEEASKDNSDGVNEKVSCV
The target in test [9] is Death-associated protein kinase 2 (Homo sapiens) (UniProt Q9UIK4). Briefly: Selectivity interaction (KinomeScan (DiscoverX)) EUB0001619a DAPK2. As to conditions: at 1 µM.
Sequence of Death-associated protein kinase 2 (Homo sapiens) (Q9UIK4 whole entry, looked up): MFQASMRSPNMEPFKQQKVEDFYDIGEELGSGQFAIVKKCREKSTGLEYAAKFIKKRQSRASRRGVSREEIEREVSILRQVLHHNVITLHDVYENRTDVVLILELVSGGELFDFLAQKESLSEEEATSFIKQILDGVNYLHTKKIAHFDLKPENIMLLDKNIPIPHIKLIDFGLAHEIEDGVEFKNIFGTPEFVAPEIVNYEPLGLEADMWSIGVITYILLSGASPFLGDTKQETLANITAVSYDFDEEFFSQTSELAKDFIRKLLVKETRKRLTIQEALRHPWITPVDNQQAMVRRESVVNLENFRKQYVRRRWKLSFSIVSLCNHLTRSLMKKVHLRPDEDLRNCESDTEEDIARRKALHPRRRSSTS
In test [10] the target is Rho-associated protein kinase 2 (Homo sapiens, UniProt O75116). Put plainly: Selectivity interaction (KinomeScan (DiscoverX)) EUB0001619a ROCK2. As to conditions: at 1 µM.
Test [11] has as its target Cyclin-dependent kinase 14 (Homo sapiens) (UniProt O94921). Put plainly: Selectivity interaction (ActivX KiNativ screen (kinase selectivity in THP-1 cell lysates)) EUB0000639a CDK14. The test is classed as subcellular. The note with it: lysate, at 0.01 µM.
Test [12] has as its target Ribosomal protein S6 kinase alpha-3 (Homo sapiens, UniProt P51812). The note with it: at 10 µM.
The target of test [13] is Serine/threonine-protein kinase SIK3 (Homo sapiens) (UniProt Q9Y2K2). Put plainly: Selectivity interaction (KinomeScan (DiscoverX)) EUB0001049a SIK3. As to conditions: at 1 µM.
Test [14] deals with T3, Muscarinic acetylcholine receptor M2 (Homo sapiens) (UniProt P08172).
T3 sequence (whole entry): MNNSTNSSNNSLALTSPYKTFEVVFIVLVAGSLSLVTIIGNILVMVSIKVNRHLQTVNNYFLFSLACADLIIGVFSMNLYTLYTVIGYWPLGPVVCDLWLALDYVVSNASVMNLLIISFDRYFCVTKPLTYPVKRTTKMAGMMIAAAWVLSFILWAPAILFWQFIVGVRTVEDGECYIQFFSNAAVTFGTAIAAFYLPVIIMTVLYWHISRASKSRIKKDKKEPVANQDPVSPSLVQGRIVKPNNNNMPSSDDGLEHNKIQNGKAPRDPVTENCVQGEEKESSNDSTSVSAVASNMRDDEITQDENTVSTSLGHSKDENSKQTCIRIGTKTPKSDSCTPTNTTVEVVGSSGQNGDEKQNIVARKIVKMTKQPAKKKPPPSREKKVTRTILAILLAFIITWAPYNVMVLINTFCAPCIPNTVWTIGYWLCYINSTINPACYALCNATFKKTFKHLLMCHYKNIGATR
Briefly: Selectivity interaction (Panel of kinases, GPCRs, ion channels and transporters (enzymatic assay)) EUB0000223bCl CHRM2.

Test [15] addresses T4, Dual specificity mitogen-activated protein kinase kinase 6 (Homo sapiens) (UniProt P52564).
T4 sequence (whole entry): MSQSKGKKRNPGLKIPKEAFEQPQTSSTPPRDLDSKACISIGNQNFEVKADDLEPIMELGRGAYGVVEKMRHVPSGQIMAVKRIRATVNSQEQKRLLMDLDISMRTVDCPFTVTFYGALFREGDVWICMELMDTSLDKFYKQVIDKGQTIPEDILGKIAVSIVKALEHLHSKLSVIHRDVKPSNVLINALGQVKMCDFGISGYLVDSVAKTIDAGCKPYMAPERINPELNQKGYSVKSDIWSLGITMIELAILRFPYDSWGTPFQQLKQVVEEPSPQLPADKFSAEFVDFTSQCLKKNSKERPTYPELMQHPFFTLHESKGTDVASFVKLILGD
Briefly: Selectivity interaction (KinomeScan (DiscoverX)) EUB0000092b MAP2K6. The note with it: at 10 µM.

In test [16] the target is Serine/threonine-protein kinase 25 (Homo sapiens) (UniProt O00506). Briefly: Selectivity interaction (KinomeScan (DiscoverX)) EUB0000092b STK25. As to conditions: at 10 µM.
Test [17] has as its target 5'-AMP-activated protein kinase catalytic subunit alpha-1 (Homo sapiens, UniProt Q13131). Put plainly: Selectivity interaction (Upstate Kinase Profiler service (Millipore)) EUB0000056c PRKAA1. The note with it: at 1 µM.
Test [18] deals with High affinity nerve growth factor receptor (Homo sapiens, UniProt P04629). Put plainly: Selectivity interaction (KinomeScan (DiscoverX)) EUB0000595a NTRK1. The note with it: at 10 µM.
Sequence of High affinity nerve growth factor receptor (P04629 33-796 limits assumed): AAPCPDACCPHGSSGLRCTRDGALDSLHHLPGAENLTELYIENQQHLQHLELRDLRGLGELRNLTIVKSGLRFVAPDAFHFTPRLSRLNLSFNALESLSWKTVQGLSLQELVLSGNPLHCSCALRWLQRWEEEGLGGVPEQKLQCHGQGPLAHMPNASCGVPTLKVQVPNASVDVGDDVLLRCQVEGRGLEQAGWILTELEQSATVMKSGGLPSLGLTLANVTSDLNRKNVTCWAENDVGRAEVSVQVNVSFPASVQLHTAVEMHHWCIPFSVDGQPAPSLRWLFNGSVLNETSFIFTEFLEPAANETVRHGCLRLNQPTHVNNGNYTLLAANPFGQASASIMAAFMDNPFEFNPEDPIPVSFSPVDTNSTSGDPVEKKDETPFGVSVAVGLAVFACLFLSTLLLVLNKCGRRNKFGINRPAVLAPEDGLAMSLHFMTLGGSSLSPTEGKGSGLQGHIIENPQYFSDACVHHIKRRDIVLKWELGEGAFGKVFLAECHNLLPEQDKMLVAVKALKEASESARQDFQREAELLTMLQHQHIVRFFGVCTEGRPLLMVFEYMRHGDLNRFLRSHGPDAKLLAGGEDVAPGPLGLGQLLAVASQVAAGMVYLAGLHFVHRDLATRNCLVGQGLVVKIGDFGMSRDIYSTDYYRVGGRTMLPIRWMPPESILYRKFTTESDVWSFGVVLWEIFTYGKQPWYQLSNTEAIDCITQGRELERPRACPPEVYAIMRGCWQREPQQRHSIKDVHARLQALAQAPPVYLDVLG

Sequence of Phosphatidylinositol 3-kinase catalytic subunit type 3 (Q8NEB9 whole entry): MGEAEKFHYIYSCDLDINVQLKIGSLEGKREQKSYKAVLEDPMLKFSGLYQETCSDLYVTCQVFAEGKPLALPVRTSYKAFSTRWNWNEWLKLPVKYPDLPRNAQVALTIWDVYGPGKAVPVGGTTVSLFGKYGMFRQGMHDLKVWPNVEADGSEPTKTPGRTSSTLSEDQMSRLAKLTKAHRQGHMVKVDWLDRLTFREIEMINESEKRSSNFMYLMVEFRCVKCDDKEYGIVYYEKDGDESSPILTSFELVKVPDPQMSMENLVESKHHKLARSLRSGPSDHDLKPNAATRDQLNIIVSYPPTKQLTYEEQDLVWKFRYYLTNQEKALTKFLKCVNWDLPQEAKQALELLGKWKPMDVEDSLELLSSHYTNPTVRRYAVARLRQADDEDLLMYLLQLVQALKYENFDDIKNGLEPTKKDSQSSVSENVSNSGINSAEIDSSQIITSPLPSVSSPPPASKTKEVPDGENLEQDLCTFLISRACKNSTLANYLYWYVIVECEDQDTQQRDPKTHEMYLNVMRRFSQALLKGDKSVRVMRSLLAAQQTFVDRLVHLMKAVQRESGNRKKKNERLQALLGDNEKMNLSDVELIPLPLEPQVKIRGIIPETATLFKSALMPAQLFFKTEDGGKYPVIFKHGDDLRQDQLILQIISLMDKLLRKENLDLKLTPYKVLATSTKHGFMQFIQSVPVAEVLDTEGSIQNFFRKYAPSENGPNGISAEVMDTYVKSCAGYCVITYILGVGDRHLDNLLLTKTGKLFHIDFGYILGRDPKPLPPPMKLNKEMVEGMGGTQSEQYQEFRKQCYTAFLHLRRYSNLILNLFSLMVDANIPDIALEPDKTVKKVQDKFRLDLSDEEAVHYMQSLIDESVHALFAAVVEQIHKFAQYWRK
Sequence of Ribosomal protein S6 kinase alpha-3 (P51812 whole entry): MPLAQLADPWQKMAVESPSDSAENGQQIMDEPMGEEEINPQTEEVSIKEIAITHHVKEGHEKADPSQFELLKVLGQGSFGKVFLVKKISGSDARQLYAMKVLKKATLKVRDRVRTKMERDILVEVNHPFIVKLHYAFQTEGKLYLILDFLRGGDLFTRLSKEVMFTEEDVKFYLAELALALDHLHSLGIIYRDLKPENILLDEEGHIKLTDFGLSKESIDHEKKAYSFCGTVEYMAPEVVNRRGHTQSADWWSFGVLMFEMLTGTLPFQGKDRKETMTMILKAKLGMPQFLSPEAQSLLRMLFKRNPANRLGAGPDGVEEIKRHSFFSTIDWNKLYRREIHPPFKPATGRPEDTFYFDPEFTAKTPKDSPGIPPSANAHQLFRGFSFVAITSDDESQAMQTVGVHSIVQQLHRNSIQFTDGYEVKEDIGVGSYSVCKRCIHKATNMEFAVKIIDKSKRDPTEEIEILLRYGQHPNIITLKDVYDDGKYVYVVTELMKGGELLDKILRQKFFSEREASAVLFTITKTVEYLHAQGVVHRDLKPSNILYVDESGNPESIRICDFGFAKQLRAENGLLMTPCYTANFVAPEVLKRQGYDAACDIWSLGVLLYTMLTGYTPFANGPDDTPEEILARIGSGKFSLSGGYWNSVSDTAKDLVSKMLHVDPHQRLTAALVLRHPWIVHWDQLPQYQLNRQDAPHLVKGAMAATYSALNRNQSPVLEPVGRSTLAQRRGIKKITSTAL
Sequence of Activin receptor type-2B (Homo sapiens) (Q13705 whole entry): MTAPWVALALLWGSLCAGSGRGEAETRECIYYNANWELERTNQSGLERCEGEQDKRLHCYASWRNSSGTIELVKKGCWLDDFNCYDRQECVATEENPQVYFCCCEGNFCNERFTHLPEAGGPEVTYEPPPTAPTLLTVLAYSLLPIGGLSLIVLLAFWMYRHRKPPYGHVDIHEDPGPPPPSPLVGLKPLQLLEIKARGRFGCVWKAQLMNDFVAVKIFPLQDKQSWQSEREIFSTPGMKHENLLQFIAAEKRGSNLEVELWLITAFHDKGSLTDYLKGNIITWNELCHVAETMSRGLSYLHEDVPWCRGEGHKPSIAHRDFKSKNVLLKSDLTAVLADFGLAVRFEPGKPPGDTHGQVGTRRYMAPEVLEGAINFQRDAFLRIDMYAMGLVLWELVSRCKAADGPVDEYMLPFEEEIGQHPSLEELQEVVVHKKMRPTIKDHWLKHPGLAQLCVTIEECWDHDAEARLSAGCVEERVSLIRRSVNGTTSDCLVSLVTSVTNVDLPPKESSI
Sequence of Serine/threonine-protein kinase PLK3 (Q9H4B4 whole entry, looked up): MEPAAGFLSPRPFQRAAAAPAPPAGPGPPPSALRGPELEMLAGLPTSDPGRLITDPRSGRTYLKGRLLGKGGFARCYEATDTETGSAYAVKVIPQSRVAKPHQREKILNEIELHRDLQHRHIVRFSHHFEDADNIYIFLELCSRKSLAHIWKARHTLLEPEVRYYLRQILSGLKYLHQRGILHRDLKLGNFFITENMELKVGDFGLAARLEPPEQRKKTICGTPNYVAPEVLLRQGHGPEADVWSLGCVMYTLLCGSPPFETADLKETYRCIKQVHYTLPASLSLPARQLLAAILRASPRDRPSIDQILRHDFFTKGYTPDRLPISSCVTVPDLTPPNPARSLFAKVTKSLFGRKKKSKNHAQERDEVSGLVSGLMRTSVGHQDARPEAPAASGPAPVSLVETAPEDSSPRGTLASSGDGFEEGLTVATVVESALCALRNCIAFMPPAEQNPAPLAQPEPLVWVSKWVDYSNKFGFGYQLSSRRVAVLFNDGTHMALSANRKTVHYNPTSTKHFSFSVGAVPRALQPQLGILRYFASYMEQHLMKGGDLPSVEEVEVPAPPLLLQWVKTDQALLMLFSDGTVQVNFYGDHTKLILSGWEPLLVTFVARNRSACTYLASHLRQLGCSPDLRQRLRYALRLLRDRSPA

`Cn1cc(-n2cnc3c(NCc4nc5cc(Cl)c(Cl)cc5[nH]4)nc(N4CCOCC4)nc32)cn1`: in test [1], the % of inhibition was -28%.

As for `CN(C)C/C=C/C(=O)Nc1ccc(C(=O)N2CCCC(Nc3ncc(Cl)c(-c4c[nH]c5ccccc45)n3)C2)cc1` (stereo not drawn), the % of control in [2] was found to be 86%.

In test [3], `O=C(NOC[C@H](O)CO)c1ccc(F)c(F)c1Nc1ccc(I)cc1F` yielded a % of control of 73%.

`CNCCN1CCC(c2cc(CN(C)C(=O)c3cccc(Oc4ccccc4)c3)ccn2)CC1` returned a % activity in test [4] of over 90%.

As for `COc1cc(N(C)c2ccnc3ccc(C(F)(F)F)cc23)cc(OC)c1OC`, the % binding in test [5] was 100%.

`Nc1cnc(N2CCc3cc(S(=O)(=O)Nc4c(F)cc(Cl)cc4F)cc(N4CCCC4=O)c32)nc1` [TP-020n]: the % of control in test [6] worked out at 80%.

Regarding `CCn1c(-c2nc3cc(C(=O)N4CCCC(N)C4)ccc3n2C)cc2ccccc21` (stereo not drawn), the pXC50 was under 4.8 M in test [7] and under 4.4 M in test [8].

Consider `N#Cc1cccc(-c2c[nH]c3ncnc(N4CCOCC4)c23)c1`, for which the % of control in [9] came out at 100%; in [10] it was 75%.

For `CC[C@@H]1[C@H](F)C(=O)N[C@@H]1COc1nccc2cc(C(N)=O)c(OC)cc12` [ZIMLOVISERTIB], the % of inhibition in [11] is -16.8%.

With `CCN(CC)CCCCNc1ncc2cc(-c3cc(OC)cc(OC)c3)c(NC(=O)NC(C)(C)C)nc2n1`, the % of control in test [12] stood at 100%.

Take `COc1cc(Nc2nc(C)cc(-c3cnn4nc(OC)ccc34)n2)cc(C(F)(F)F)c1`: in test [13], the % of control is 82%.

`COc1cc(C(=O)N2CC[C@@H](O)[C@@H](N)C2)cc2nc(-c3cc4ccccc4n3CC3CC3)n(C)c12` gave a pXC50 in [14] of under 4.8 M.

In the case of `CCC(=O)N1CCN(c2ccc(-n3c(=O)ccc4cnc5ccc(-c6cnc7ccccc7c6)cc5c43)cc2C(F)(F)F)CC1`, the results for the % of control in test [15] and in test [16] were 100% and 84%, respectively.

As to `Cc1ccc(-c2ccc3c(ccc4sc5c(c43)NC[C@@H](C)NC5=O)n2)cn1`, the % of inhibition in test [17] worked out at 77%.

As for `COCC(=O)NC/C=C/c1ccc2ncnc(Nc3ccc(Oc4ccc(C)nc4)c(C)c3)c2c1` [CP-724714], the % of control in test [18] was 89%.
